Tested on: patients with type 2 diabetes
Format: in vivo, human
Details: reduction from […]; insulin glargine on top of metformin +/- TZDs, before randomized treatment
Experimental: The study consisted of 3 periods: (1) an up to 14-week screening period, which included an up to 2-week screening phase and a 12-week run-in phase with the introduction and titration of insulin glargine on top of metformin+/−TZDs; patients started insulin glargine once daily and titrated the insulin dose by a treat-to-target regimen to reach a glycemic target of FPG 100-80 mg/dl (5.6-4.4 mmol/L) during run-in.
Of note, per protocol, insulin dose adjustment to maintain fasting plasma glucose at target was allowed in both treatment groups throughout the study.

Substance: Gly(A21)-Arg(B31)-Arg(B32)-human insulin [insulin glargine]
- Mean HbA1c after the 12-week run-in phase, lixisenatide group: 7.56%
- Mean HbA1c after the 12-week run-in phase, placebo group: 7.60%
